{"source": "patent US11844801B2", "about": "“Oral compositions of MK2 pathway inhibitor for treatment of immune conditions” (priority 2020, dated 2023)", "key": {"TNFα": {"system": "TNFα", "test": "LPS stimulated TNFα in differentiated U937 cells (hPBMC), ELISA", "format": "cell-based", "settings": "Homo sapiens, U-937; LPS 0.1 μg/mL, 4 hours", "procedure": "(§1) Therefore, inhibition of the p38 MAP Kinase pathway will lower the inflammatory response by decreasing biosynthesis of pro-inflammatory cytokines. […] The U937 human pre-monocytic cell line was obtained from the American Type Culture Collection (Rockville, MD). These cells were differentiated to a monocytic/macrophage phenotype as described by Burnette (Burnette et al, (2009). […] Differentiated U937 cells (human peripheral blood mononuclear cells (hPBMC)) were seeded into 96-well tissue culture plates (200,000 cells/well) in complete media. […] Culture media was then collected for determination of TNFα, IL-6 or IL-10 levels by ELISA. Cytokine concentrations were extrapolated from recombinant protein standard curves using a four-parameter logistic model and solving for IC50 after iterating to the best least-squares fit."}, "IL-6": {"system": "IL-6", "test": "LPS stimulated IL-6 in differentiated U937 cells (hPBMC), ELISA", "format": "cell-based", "settings": "Homo sapiens, U-937; LPS 0.1 μg/mL, 4 hours", "procedure": "as §1"}, "IL-1β": {"system": "IL-1β", "test": "LPS stimulated IL-1β in differentiated U937 cells (hPBMC), ELISA", "format": "cell-based", "settings": "Homo sapiens, U-937; LPS 0.1 μg/mL, 4 hours"}, "[1]": {"test": "Crystal form screen of Compound (P)-I", "format": "physicochemical", "settings": "for Crystal form obtained, EV: evaporation; for Crystal form obtained, RC: rapid cooling 40 to −20° C.; for Crystal form obtained, TC: temperature-cycled slurry 5-40° C.", "procedure": "Water-containing solvents with a variety of water activities (aw)^1 were also included to probe for the formation of hydrates. Temperatures ranging between 40° C. to −20° C.\nThe screening studies were comprised of the following crystallization modes: • Temperature-cycled ripening of API slurries between 5-40° C. for four days (TC) • Rapid cooling clarified saturated solutions from 40 to −20° C. and holding at −20° C. for three days (RC) • Slow evaporation of clarified solutions at RT over 14 days."}, "[2]": {"settings": "MTX 7.5 mg single oral dose alone, fasted"}, "[3]": {"settings": "2-Methoxyethanol:Isopropyl ether (20:80)"}, "[4]": {"settings": "2-propanol:Water (90:10), water activity 0.65"}, "[5]": {"settings": "2-propanol:Water (95:5), water activity 0.55"}, "[6]": {"settings": "Acetone:Water (20:80), water activity 0.96"}, "[7]": {"settings": "Acetone:Water (80:20), water activity 0.77"}, "[8]": {"settings": "Acetonitrile:Water (90:10), water activity 0.76"}, "[9]": {"settings": "Methanol:Water (90:10), water activity 0.33"}, "[10]": {"settings": "Methanol:Water (95:5), water activity 0.20"}, "[11]": {"settings": "Tetrahydrofuran::Water (20:80), water activity 0.82"}}}
{"smiles": "Cc1cnc(-c2ccnc(C(C)(C)O)n2)cc1-n1c(C)cc(OCc2ncc(F)cc2F)c(Cl)c1=O", "note": "(atropisomer, axis not shown; (M)) [(M)-I, (M)-3-chloro-4-((3,5-difluoropyridin-2-yl)methoxy)-2′-(2-(2-hydroxypropan-2-yl)pyrimidin-4-yl)-5′,6-dimethyl-2H-[1,4′-bipyridin]-2-one]", "values": [{"measurement": "IC50", "setting": "TNFα", "result": "> 10000", "unit": "µM"}, {"measurement": "IC50", "setting": "IL-6", "result": "> 10000", "unit": "µM"}, {"measurement": "IC50", "setting": "IL-1β", "result": "> 10000", "unit": "µM"}]}
{"smiles": "Cc1cnc(-c2ccnc(C(C)(C)O)n2)cc1-n1c(C)cc(OCc2ncc(F)cc2F)c(Cl)c1=O", "note": "(single isomer, unassigned) [(P)-I, (P)-3-chloro-4-((3,5-difluoropyridin-2-yl)methoxy)-2′-(2-(2-hydroxypropan-2-yl)pyrimidin-4-yl)-5′,6-dimethyl-2H-[1,4′-bipyridin]-2-one]", "values": [{"measurement": "Crystal form obtained, EV", "setting": "[1]; 1,4-Dioxane", "result": "Form A"}, {"measurement": "Crystal form obtained, EV", "setting": "[1]; 1,4-Dioxane:Water (90:10), water activity 0.70", "result": "Form A"}, {"measurement": "Crystal form obtained, EV", "setting": "[1]; 1-Propanol", "result": "Form A"}, {"measurement": "Crystal form obtained, EV", "setting": "[1]; 2-Butanone", "result": "Form A"}, {"measurement": "Crystal form obtained, EV", "setting": "[1]; [3]", "result": "Form A"}, {"measurement": "Crystal form obtained, EV", "setting": "[1]; 2-Propanol", "result": "Form A"}, {"measurement": "Crystal form obtained, EV", "setting": "[1]; [4]", "result": "Form A"}, {"measurement": "Crystal form obtained, EV", "setting": "[1]; [5]", "result": "Form A"}, {"measurement": "Crystal form obtained, EV", "setting": "[1]; 4-Methyl-2-pentanone", "result": "Form A"}, {"measurement": "Crystal form obtained, EV", "setting": "[1]; Acetone", "result": "Form A"}, {"measurement": "Crystal form obtained, EV", "setting": "[1]; [6]", "result": "Form A"}, {"measurement": "Crystal form obtained, EV", "setting": "[1]; [7]", "result": "Form A"}, {"measurement": "Crystal form obtained, EV", "setting": "[1]; Acetone:Water (90:10), water activity 0.70", "result": "Form A"}, {"measurement": "Crystal form obtained, EV", "setting": "[1]; Acetonitrile", "result": "Form A"}, {"measurement": "Crystal form obtained, EV", "setting": "[1]; [8]", "result": "Form A"}, {"measurement": "Crystal form obtained, EV", "setting": "[1]; DMSO:t-butyl methyl ether (20:80)", "result": "Form A"}, {"measurement": "Crystal form obtained, EV", "setting": "[1]; Dichloromethane", "result": "Form A"}, {"measurement": "Crystal form obtained, EV", "setting": "[1]; Dimethyl carbonate", "result": "Form A"}, {"measurement": "Crystal form obtained, EV", "setting": "[1]; Ethanol", "result": "Form A"}, {"measurement": "Crystal form obtained, EV", "setting": "[1]; Ethyl acetate", "result": "Form A"}, {"measurement": "Crystal form obtained, EV", "setting": "[1]; Isopropyl acetate", "result": "Form A"}, {"measurement": "Crystal form obtained, EV", "setting": "[1]; Methanol", "result": "Form A"}, {"measurement": "Crystal form obtained, EV", "setting": "[1]; [9]", "result": "Form A"}, {"measurement": "Crystal form obtained, EV", "setting": "[1]; [10]", "result": "Form A"}, {"measurement": "Crystal form obtained, EV", "setting": "[1]; Nitromethane", "result": "Form A"}, {"measurement": "Crystal form obtained, EV", "setting": "[1]; Tetrahydrofuran", "result": "Form A"}, {"measurement": "Crystal form obtained, EV", "setting": "[1]; [11]", "result": "Form A"}, {"measurement": "Crystal form obtained, EV", "setting": "[1]; Tetrahydrofuran:Water (90:10), water activity 0.83", "result": "Form A"}, {"measurement": "Crystal form obtained, EV", "setting": "[1]; Toluene", "result": "Form A"}, {"measurement": "Crystal form obtained, RC", "setting": "[1]; [4]", "result": "Form A"}, {"measurement": "Crystal form obtained, RC", "setting": "[1]; [7]", "result": "Form A"}, {"measurement": "Crystal form obtained, RC", "setting": "[1]; Acetonitrile", "result": "Form A"}, {"measurement": "Crystal form obtained, RC", "setting": "[1]; [9]", "result": "Form A"}, {"measurement": "Crystal form obtained, RC", "setting": "[1]; Nitromethane", "result": "Form A"}, {"measurement": "Crystal form obtained, TC", "setting": "[1]; 1-Butanol", "result": "Form A"}, {"measurement": "Crystal form obtained, TC", "setting": "[1]; 1-Methoxy-2-propanol:Isopropyl ether (20:80)", "result": "Form A"}, {"measurement": "Crystal form obtained, TC", "setting": "[1]; [3]", "result": "Form A"}, {"measurement": "Crystal form obtained, TC", "setting": "[1]; 2-Methoxyethyl ether:Heptane (20:80)", "result": "Form A"}, {"measurement": "Crystal form obtained, TC", "setting": "[1]; 2-Propanol", "result": "Form A"}, {"measurement": "Crystal form obtained, TC", "setting": "[1]; [5]", "result": "Form A"}, {"measurement": "Crystal form obtained, TC", "setting": "[1]; 4-Methyl-2-pentanone", "result": "Form A"}, {"measurement": "Crystal form obtained, TC", "setting": "[1]; 4-Methyl-2-pentanone:heptane (20:80)", "result": "Form A"}, {"measurement": "Crystal form obtained, TC", "setting": "[1]; [6]", "result": "Form A"}, {"measurement": "Crystal form obtained, TC", "setting": "[1]; Acetonitrile", "result": "Form A"}, {"measurement": "Crystal form obtained, TC", "setting": "[1]; [8]", "result": "Form A"}, {"measurement": "Crystal form obtained, TC", "setting": "[1]; Acetonitrile:Water (95:5), water activity 0.94", "result": "Form A"}, {"measurement": "Crystal form obtained, TC", "setting": "[1]; Acetonitrile:isopropyl ethyl ether (20:80)", "result": "Form A"}, {"measurement": "Crystal form obtained, TC", "setting": "[1]; Chlorobenzene:Cyclohexane (20:80)", "result": "Form A"}, {"measurement": "Crystal form obtained, TC", "setting": "[1]; Cyclohexane", "result": "Form A"}, {"measurement": "Crystal form obtained, TC", "setting": "[1]; Dimethyl carbonate", "result": "Form A"}, {"measurement": "Crystal form obtained, TC", "setting": "[1]; Ethanol:Water (20:80), water activity 0.93", "result": "Form A"}, {"measurement": "Crystal form obtained, TC", "setting": "[1]; Ethyl acetate:cyclohexane (20:80)", "result": "Form A"}, {"measurement": "Crystal form obtained, TC", "setting": "[1]; Heptane", "result": "Form A"}, {"measurement": "Crystal form obtained, TC", "setting": "[1]; Isopropyl acetate", "result": "Form A"}, {"measurement": "Crystal form obtained, TC", "setting": "[1]; Isopropyl ether", "result": "Form A"}, {"measurement": "Crystal form obtained, TC", "setting": "[1]; [9]", "result": "Form A"}, {"measurement": "Crystal form obtained, TC", "setting": "[1]; [10]", "result": "Form A"}, {"measurement": "Crystal form obtained, TC", "setting": "[1]; Methyl acetate:Heptane (20:80)", "result": "Form A"}, {"measurement": "Crystal form obtained, TC", "setting": "[1]; N,N-Dimethylformamide:Water (20:80), water activity 0.95", "result": "Form A"}, {"measurement": "Crystal form obtained, TC", "setting": "[1]; Nitromethane", "result": "Form A"}, {"measurement": "Crystal form obtained, TC", "setting": "[1]; [11]", "result": "Form A"}, {"measurement": "Crystal form obtained, TC", "setting": "[1]; Toluene", "result": "Form A"}, {"measurement": "Crystal form obtained, TC", "setting": "[1]; Trifluoroethanol:Isopropyl ether (20:80)", "result": "Form A"}, {"measurement": "Crystal form obtained, TC", "setting": "[1]; Water, water activity 1.00", "result": "Form A"}, {"measurement": "Crystal form obtained, TC", "setting": "[1]; t-Butyl methyl ether", "result": "Form A"}, {"measurement": "IC50", "setting": "TNFα", "result": 0.004, "unit": "µM"}, {"measurement": "IC50", "setting": "IL-6", "result": 0.145, "unit": "µM"}, {"measurement": "IC50", "setting": "IL-1β", "result": 0.012, "unit": "µM"}]}
{"smiles": "CN(Cc1cnc2nc(N)nc(N)c2n1)c1ccc(C(=O)N[C@@H](CCC(=O)O)C(=O)O)cc1", "note": "[MTX, Methotrexate]", "values": [{"measurement": "AUC0-∞", "setting": "[2]", "result": "562.2 (102.2) ng · h/mL"}, {"measurement": "Cmax", "setting": "[2]", "result": "163.3 (35.6) ng/mL"}, {"measurement": "Tmax, median (min, max)", "setting": "[2]", "result": "1.0 (0.5, 2.5) h"}, {"measurement": "t1/2", "setting": "[2]", "result": "3.1 (0.7) h"}]}
